Test results taken from article PMC11277004, “Di- and Triselenoesters—Promising Drug Candidates for the Future Therapy of Triple-Negative Breast Cancer” (International Journal of Molecular Sciences, 2024).
Read-outs that look alike come from different tables or passages of the source.

How the values were obtained:
Assay type in all cases: cell-based, human
[1] = test system: MCF-7 and MDA-MB-231 breast cancer cells; experiment: Western immunoblot of Akt and AMPK; details: 0.5 and 1 μM, 24 h
Method: (§1) Protein concentrations in the samples were determined using the Lowry method. Samples were prepared containing equal amounts of protein (30 μg/lane) and an appropriate amount of Laemmli buffer (120 mM Tris-HCl, 20% glycerol, 0.4% SDS, and 0.02% bromophenol blue, pH 6.8) containing 100 mM 1,4-dithiothreitol (DTT; Roche, Basel, Switzerland). Samples were denatured at 95 °C for 10 min. The proteins were separated using the SDS-PAGE method described by Laemmli. Proteins were separated on 12% SDS-PAGE gels. […] Transfer conditions were 250 mA, at 4-8 °C, overnight in freshly prepared Towbin buffer. Membranes were blocked with 5% non-fat dried milk (Santa Cruz Biotechnology, Dallas, Texas, USA) in TBS-T (20 mM Tris, 150 mM NaCl, 0.1% Tween-20, pH 7.6) for 1 h at room temperature with gentle shaking. After the blocking step, membranes were washed four times with TBS-T (4 × 15 min) and incubated with primary monoclonal antibodies (against β-actin, p53 (both from Santa Cruz Biotechnology, Dallas, TX, USA), Akt, AMPK (both from BD Transduction Laboratories, San Jose, CA, USA), Bax, caspase 7, and caspase 9 (all from Cell Signaling Technology, Danvers, MA, USA)). Membranes were incubated with primary antibodies overnight at 4 °C. […]

[2] = test system: LC3A/B; experiment: LC3A/B protein level by flow cytometry, MDA-MB-231; details: 24 h
Method: For this purpose, Akt (PE), Bax (FITC), Bcl-2 (Alexa Fluor® 647), LC3A/B (Alexa Fluor® 488), and p53 (Alexa Fluor® 488) antibodies conjugated to different fluorochromes (all from Cell Signaling Technology, Beverly, MA, USA) were utilized. Each assay was performed according to the manufacturer's protocol available on their website. After incubation with the tested compounds, the cells were centrifuged, resuspended in 4% formaldehyde (100 μL/1 × 10^6 cells), and fixed for 15 min at room temperature. Afterward, to remove the formaldehyde, the cells were washed by centrifugation with excess PBS and the permeabilization step was triggered. For this purpose, ice-cold 90% methanol was added to the pre-chilled cell pellet, gently vortexed, and incubated for 1 h on ice. Later, the cells were washed by centrifugation with excess PBS again, resuspended in 100 μL of 1:100 diluted primary antibody (stain buffer was used for dilution), and incubated for 1 h at room temperature in the dark. After incubation, the cells were washed, resuspended in 300 μL PBS, and immediately tested with a flow cytometer (BD FACSCanto II, BD Biosciences Systems, San Jose, CA, USA; 10,000 events measured). The obtained results were analyzed using the FACSDiva 6.0 software (BD Biosciences Systems, San Jose, CA, USA). In the case of the p53 protein, the MRF values were obtained first during the flow cytometer readout utilizing FACSDiva software and later analyzed using FCS Express 7 (De Novo Software, Pasadena, CA, USA). The equipment calibration was performed using the BD Cytometer Setup and Tracking Beads (BD Biosciences, San Diego, CA, USA).

[3] = test system: MCF-7 breast cancer cells; experiment: DNA biosynthesis assay ([3H]-thymidine incorporation), MCF-7; details: read-out: IC50, DNA biosynthesis
Method: The study of the antiproliferative properties (intensity of [^3H]-thymidine incorporation into cell DNA) of the tested derivatives against tested cell lines (MCF-7, MDA-MB-231, MCF-10A) was performed after 24 h incubation with varied concentrations of the tested compounds in the medium (0.5–5 µM) in 6-well plates (baseline seeding density: 5 × 10^5 cells/well). After 24 h the medium was removed, the cells were washed with PBS (Corning, Kennebunk, ME, USA), and a fresh medium was added. After that, the cells were treated with 0.5 µCi of tritium-labeled thymidine (specific activity 7 Ci/mmol) by incubating them with this compound for 4 h under the same conditions as the cell culture. In the first step, the medium was removed, and the cell monolayer was washed twice with 1 mL of 0.05 M Tris-HCl buffer pH 7.4 containing 0.11 M NaCl. To denature proteins, the cells were washed twice with 1 mL of 5% trichloroacetic acid (TCA) solution. Finally, cell lysis was performed by adding 1 mL of 0.1 M sodium hydroxide (NaOH) solution containing 1% sodium dodecyl sulfate (SDS) to each well. After five minutes, the obtained cell lysates were transferred to scintillation vials with 2 mL of scintillation fluid added to them beforehand. Radioactivity was measured using the Scintillation Counter 1900 TR, TRI-CARB (Packard, Perkin Elmer, Inc., San Jose, CA, USA). The intensity of DNA biosynthesis in the analyzed cells was expressed in terms of dpm/well. The result of the radioactivity measurement in the control cells (without the addition of tested compounds) was taken as 100%, while the values of cells incubated with the tested compounds were presented as a percentage of the control value.

[4] = test system: breast cancer cells (MCF-7 and MDA-MB-231); experiment: Apoptosis induction, summary statements
Method: The FITC Annexin V Apoptosis Detection Kit II (BD Pharmingen, San Diego, CA, USA) and a flow cytometer (BD FACSCanto II, BD Biosciences Systems, San Jose, CA, USA) were used in this evaluation. The assay was performed according to the manufacturer’s instructions. Flow cytometer calibration was performed by preparing two controls—a positive and a negative control. […] The negative control was cells that were not treated with any of the proapoptotic agents. First, in the cells treated with the tested compounds as well as the controls, the medium was removed, and the cells were washed twice with cold PBS. Subsequently, the cells were resuspended in the binding buffer included in the kit at a concentration of 1 × 10^6 cells/mL. From each sample, 100 µL of cell suspension was taken and transferred to test tubes, to which 5 µL each of FITC annexin V and propidium iodide (PI) were then added. The contents of the test tubes were gently vortexed and incubated for 15 min at room temperature, protected from light. After the required time, the contents of the test tubes were made up to 500 µL with binding buffer and immediately analyzed in a flow cytometer (10,000 events measured). After the flow cytometer readout, the results were analyzed using the FACSDiva 6.0 software (BD Biosciences Systems, San Jose, CA, USA). […]

[5] = test system: MCF-7 and MDA-MB-231 breast cancer cells; experiment: Western immunoblot of Bax, caspase 7 and 9, p53; details: 0.5 and 1 μM, 24 h
Method: as §1

SMILES | expression of Akt and AMPK (Western blot, in words) [1] | LC3A/B positive cells ± SD ([2]; MDA-MB-231, 0.5 μM) [%] | LC3A/B positive cells ± SD ([2]; MDA-MB-231, 1 μM) [%] | IC50 ([3]; MCF-7, 24 h incubation) [nM] | development of necrosis in the breast cancer cell lines (in words) [4] | expression of Bax, caspase 7 and 9, p53 (Western blot, in words) [5] | IC50 ([3]; Homo sapiens, MCF7, 24 h) [nM]
N.N.[Cl][Pt][Cl] [Cisplatin, reference compound] | did not significantly affect | 2.4 ± 0.5 | 3.2 ± 0.3 | > 5000 | – | – | –
CC(=O)C[Se]C(=O)c1ccc(C(=O)[Se]CC(C)=O)cc1 [EDAG-1, Se,Se-bis(2-oxopropyl) benzene-1,4-bis(carboselenoate)] | – | 10.5 ± 1.4 | 15.4 ± 1.3 | – | did not affect the development of necrosis | slightly weaker effect | 790 ± 20
CC(=O)C[Se]C(=O)c1cc(C(=O)[Se]CC(C)=O)cc(C(=O)[Se]CC(C)=O)c1 [EDAG-8, Se,Se,Se-tris-(2-oxopropyl) benzene-1,3,5-tris-(carboxyselenoate)] | most active | 14.8 ± 0.5 | 17.0 ± 1.6 | – | did not affect the development of necrosis | most active | 960 ± 70
